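Test compounds were applied to cells in 96-well plates for 48 hours at 5 doses. GI50 marks 50% less growth.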 Active and inactive are the calls of the source. Rule as the data show it: active = GI50 up to about 1.1 µM and inactive = higher.
Tests used:
Test in all cases: NCI-60 cell line screen, 48 h
NCI-H522 = test system: NCI-H522
NCI/ADR-RES = test system: NCI/ADR-RES
K562 = test system: K562
A498 = test system: A498
OVCAR-8 = test system: OVCAR-8
SN12C = test system: SN12C
OVCAR-3 = test system: OVCAR-3
CAKI-1 = test system: CAKI-1
HOP-92 = test system: HOP-92
OVCAR-4 = test system: OVCAR-4
ACHN = test system: ACHN
SF-295 = test system: SF-295
NCI-H226 = test system: NCI-H226
Malme-3M = test system: Malme-3M
BT-549 = test system: BT-549
SK-MEL-5 = test system: SK-MEL-5
M14 = test system: M14
SF-268 = test system: SF-268
HOP-62 = test system: HOP-62
NCI-H460 = test system: NCI-H460

SMILES | GI50 (NCI-H522) | GI50 (NCI/ADR-RES) | GI50 (K562) | GI50 (A498) | GI50 (OVCAR-8) | GI50 (SN12C) | GI50 (OVCAR-3) | GI50 (CAKI-1) | GI50 (HOP-92) | GI50 (OVCAR-4) | GI50 (ACHN) | GI50 (SF-295) | GI50 (NCI-H226) | GI50 (Malme-3M) | GI50 (BT-549) | GI50 (SK-MEL-5) | GI50 (M14) | GI50 (SF-268) | GI50 (HOP-62) | GI50 (NCI-H460)
Oc1c(Br)cc(Br)cc1CN(Cc1cc(Br)cc(Br)c1O)C1CCCCC1 | 15.3 µM (inactive) | 39.9 µM (inactive) | 31.6 µM (inactive) | 26.7 µM (inactive) | 31.1 µM (inactive) | 33.2 µM (inactive) | 15.1 µM (inactive) | 34.9 µM (inactive) | 32.5 µM (inactive) | 46.9 µM (inactive) | 31.1 µM (inactive) | 21.2 µM (inactive) | 59.4 µM (inactive) | 21.2 µM (inactive) | 33.1 µM (inactive) | 16.9 µM (inactive) | 34.3 µM (inactive) | 22 µM (inactive) | 24.4 µM (inactive) | –
O=C1C=CC(=O)N1n1c(Cc2ccccc2)n[nH]c1=O | > 100 µM (inactive) | > 100 µM (inactive) | > 100 µM (inactive) | > 100 µM (inactive) | > 100 µM (inactive) | > 100 µM (inactive) | > 100 µM (inactive) | > 100 µM (inactive) | > 100 µM (inactive) | > 100 µM (inactive) | > 100 µM (inactive) | > 100 µM (inactive) | > 100 µM (inactive) | > 100 µM (inactive) | > 100 µM (inactive) | > 100 µM (inactive) | – | > 100 µM (inactive) | > 100 µM (inactive) | > 100 µM (inactive)
COc1cc(C2SCC(=O)N2c2ccccn2)cc(OC)c1OC (stereo unspecified) | 57.7 µM (inactive) | 39.6 µM (inactive) | 48.4 µM (inactive) | > 100 µM (inactive) | > 100 µM (inactive) | > 100 µM (inactive) | > 100 µM (inactive) | > 100 µM (inactive) | 14.2 µM (inactive) | > 100 µM (inactive) | > 100 µM (inactive) | 81.1 µM (inactive) | > 100 µM (inactive) | – | 98.6 µM (inactive) | 55 µM (inactive) | > 100 µM (inactive) | > 100 µM (inactive) | – | > 100 µM (inactive)
CN(C)c1c(C2OC(CO)C(O)C2O)c(=O)c1=O (stereo unspecified) | > 100 µM (inactive) | > 100 µM (inactive) | > 100 µM (inactive) | > 100 µM (inactive) | > 100 µM (inactive) | > 100 µM (inactive) | > 100 µM (inactive) | > 100 µM (inactive) | > 100 µM (inactive) | > 100 µM (inactive) | > 100 µM (inactive) | – | > 100 µM (inactive) | > 100 µM (inactive) | > 100 µM (inactive) | – | > 100 µM (inactive) | > 100 µM (inactive) | > 100 µM (inactive) | > 100 µM (inactive)
CCC1(c2ccccc2)C(=O)N=C(c2ccccc2)N1CCc1ccccc1 (stereo unspecified) | > 100 µM (inactive) | > 100 µM (inactive) | > 100 µM (inactive) | > 100 µM (inactive) | > 100 µM (inactive) | > 100 µM (inactive) | > 100 µM (inactive) | > 100 µM (inactive) | > 100 µM (inactive) | > 100 µM (inactive) | > 100 µM (inactive) | > 100 µM (inactive) | > 100 µM (inactive) | > 100 µM (inactive) | > 100 µM (inactive) | > 100 µM (inactive) | > 100 µM (inactive) | > 100 µM (inactive) | > 100 µM (inactive) | –
CCN(CCCN(CC)C(=O)Nc1c(C)cccc1C)C(=O)Nc1c(C)cccc1C | > 100 µM (inactive) | > 100 µM (inactive) | > 100 µM (inactive) | > 100 µM (inactive) | > 100 µM (inactive) | > 100 µM (inactive) | – | > 100 µM (inactive) | > 100 µM (inactive) | > 100 µM (inactive) | > 100 µM (inactive) | > 100 µM (inactive) | > 100 µM (inactive) | > 100 µM (inactive) | > 100 µM (inactive) | > 100 µM (inactive) | > 100 µM (inactive) | > 100 µM (inactive) | > 100 µM (inactive) | > 100 µM (inactive)
CSc1nc2c(c(=O)n1C)N=C(c1ccc([N+](=O)[O-])cc1)CC(c1ccccc1)N2 (stereo unspecified) | 48.8 µM (inactive) | > 100 µM (inactive) | > 100 µM (inactive) | > 100 µM (inactive) | > 100 µM (inactive) | > 100 µM (inactive) | > 100 µM (inactive) | > 100 µM (inactive) | > 100 µM (inactive) | 91.8 µM (inactive) | 95.9 µM (inactive) | > 100 µM (inactive) | > 100 µM (inactive) | > 100 µM (inactive) | > 100 µM (inactive) | > 100 µM (inactive) | > 100 µM (inactive) | – | > 100 µM (inactive) | 90.6 µM (inactive)
O=C(CCC(=O)c1ccc(Cl)cc1)NO | > 100 µM (inactive) | > 100 µM (inactive) | > 100 µM (inactive) | > 100 µM (inactive) | > 100 µM (inactive) | > 100 µM (inactive) | > 100 µM (inactive) | > 100 µM (inactive) | > 100 µM (inactive) | > 100 µM (inactive) | > 100 µM (inactive) | > 100 µM (inactive) | > 100 µM (inactive) | – | > 100 µM (inactive) | > 100 µM (inactive) | > 100 µM (inactive) | > 100 µM (inactive) | > 100 µM (inactive) | > 100 µM (inactive)
C=C(CN(C)C)C(=O)c1cc(C)ccc1C | 0.843 µM (active) | 18.3 µM (inactive) | 0.791 µM (active) | 23.6 µM (inactive) | 20.7 µM (inactive) | 15.6 µM (inactive) | 5.33 µM (inactive) | 4.39 µM (inactive) | 2.81 µM (inactive) | 9.75 µM (inactive) | 3.54 µM (inactive) | 16.7 µM (inactive) | 13.2 µM (inactive) | 2.5 µM (inactive) | 10.2 µM (inactive) | 13.3 µM (inactive) | 2.11 µM (inactive) | 20.3 µM (inactive) | 18.7 µM (inactive) | 19.9 µM (inactive)
CCSSCS(C)(=O)=O | 18.9 µM (inactive) | 31.8 µM (inactive) | 3.88 µM (inactive) | 32.3 µM (inactive) | 21.6 µM (inactive) | 24.8 µM (inactive) | 26.5 µM (inactive) | 34.8 µM (inactive) | 16.9 µM (inactive) | 17.8 µM (inactive) | 30.5 µM (inactive) | 59.3 µM (inactive) | 29.8 µM (inactive) | 77.3 µM (inactive) | 32.1 µM (inactive) | 32.7 µM (inactive) | 20.4 µM (inactive) | 44.5 µM (inactive) | 39.3 µM (inactive) | 33.5 µM (inactive)
O=c1oc2c(Br)c(O)c(Br)cc2c2ccccc12 | 15.8 µM (inactive) | 12.2 µM (inactive) | 23.1 µM (inactive) | 25.8 µM (inactive) | 33.6 µM (inactive) | 26.5 µM (inactive) | 16.5 µM (inactive) | 16 µM (inactive) | 22.5 µM (inactive) | 29.7 µM (inactive) | 30.8 µM (inactive) | 34 µM (inactive) | 27.1 µM (inactive) | 26.5 µM (inactive) | 29 µM (inactive) | 24.5 µM (inactive) | 31.9 µM (inactive) | 20.8 µM (inactive) | 30.5 µM (inactive) | 24 µM (inactive)
COc1ccc2nc3ccc(OC)cc3c([S+]([O-])CCCl)c2c1 (stereo unspecified) | 1.67 µM (inactive) | 15.2 µM (inactive) | – | 16.8 µM (inactive) | 2.67 µM (inactive) | 1.94 µM (inactive) | 2.2 µM (inactive) | 2.62 µM (inactive) | 2.49 µM (inactive) | 5.05 µM (inactive) | 2.18 µM (inactive) | 22.2 µM (inactive) | 16.8 µM (inactive) | 1.69 µM (inactive) | 15.1 µM (inactive) | 14.9 µM (inactive) | 3.52 µM (inactive) | 6.76 µM (inactive) | 18.1 µM (inactive) | 26.4 µM (inactive)
O=C(c1ccccc1)n1cc(-c2ccccc2)c2c(=O)nc[nH]c21 | > 100 µM (inactive) | > 100 µM (inactive) | – | > 100 µM (inactive) | > 100 µM (inactive) | > 100 µM (inactive) | > 100 µM (inactive) | > 100 µM (inactive) | > 100 µM (inactive) | > 100 µM (inactive) | > 100 µM (inactive) | > 100 µM (inactive) | > 100 µM (inactive) | > 100 µM (inactive) | > 100 µM (inactive) | > 100 µM (inactive) | > 100 µM (inactive) | > 100 µM (inactive) | > 100 µM (inactive) | –
COc1ccc(/C=C2/C(=O)N(C(=O)c3ccccc3O)N=C2C)cc1OC | 1.71 µM (inactive) | 0.614 µM (active) | – | 0.121 µM (active) | 0.568 µM (active) | 2.42 µM (inactive) | 0.374 µM (active) | 2.46 µM (inactive) | 0.326 µM (active) | 2.44 µM (inactive) | 0.162 µM (active) | 0.365 µM (active) | 0.637 µM (active) | 0.849 µM (active) | 0.388 µM (active) | 0.982 µM (active) | 0.927 µM (active) | 0.556 µM (active) | 1.99 µM (inactive) | 0.34 µM (active)
O=C1/C(=C/c2ccc(O)cc2)CC/C1=C\c1ccc(O)cc1 | 49.4 µM (inactive) | 28.3 µM (inactive) | > 100 µM (inactive) | > 33 µM (inactive) | > 81.5 µM (inactive) | > 64.6 µM (inactive) | > 100 µM (inactive) | 34.5 µM (inactive) | > 68.9 µM (inactive) | > 64.3 µM (inactive) | 6.31 µM (inactive) | > 96.4 µM (inactive) | > 100 µM (inactive) | > 72.6 µM (inactive) | > 100 µM (inactive) | > 100 µM (inactive) | > 100 µM (inactive) | > 95.1 µM (inactive) | > 61.8 µM (inactive) | 44.7 µM (inactive)
